Numbering of substitutions follows the chain as printed.
Tests used:
[1] = target: T1, Type-1 angiotensin II receptor (Oryctolagus cuniculus, UniProt P34976); experiment: Antagonist activity at angiotensin AT1 receptor in rabbit adrenal cortex assessed as inhibition of angiotensin 2-induced […] response; format: functional, tissue-based
T1 sequence (P34976 whole entry): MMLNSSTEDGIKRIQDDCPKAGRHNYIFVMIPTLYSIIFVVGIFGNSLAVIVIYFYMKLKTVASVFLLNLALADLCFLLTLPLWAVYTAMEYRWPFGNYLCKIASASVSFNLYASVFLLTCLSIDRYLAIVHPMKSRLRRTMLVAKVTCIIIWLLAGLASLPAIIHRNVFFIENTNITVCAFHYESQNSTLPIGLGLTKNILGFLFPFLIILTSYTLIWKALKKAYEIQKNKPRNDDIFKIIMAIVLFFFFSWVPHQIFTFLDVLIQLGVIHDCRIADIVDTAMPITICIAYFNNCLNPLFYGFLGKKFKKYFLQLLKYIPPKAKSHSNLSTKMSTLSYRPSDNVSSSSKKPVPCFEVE

[2] = target: T1, Type-1 angiotensin II receptor; experiment: Antagonist activity at angiotensin AT1 receptor in rabbit aortic strip assessed as inhibition of angiotensin 2-induced contractile response; format: functional; details: read-out: pA2 (converted)
Rattus norvegicus [3] = experiment: Antihypertensive activity in conscious normotensive rat assessed as inhibition of angiotensin 2-induced pressor response at 1 mg/kg, iv after 6 hrs; format: functional
Rattus norvegicus [4] = experiment: Antihypertensive activity in conscious normotensive rat after 24 hrs; format: functional
[5] = target: T2, Type-1 angiotensin II receptor (Homo sapiens, UniProt P30556); experiment: Displacement of [3H]-angiotensin 2 from angiotensin AT1 receptor
T2 sequence (P30556 whole entry): T1 sequence (P34976 whole entry) with M2I, A49V, V254I, V270I, H272R, K311R, S349T, V353A

Rattus norvegicus [6] = experiment: Cardiotoxicity in left renal artery-ligated hypertensive rat model assessed as reduction of heart rate at 1 to 10 mg/kg, po for 6 days; format: toxicity, organism-based; parameters: dose 1-10 mg/kg, route oral; scale not given: the % may be the effect or the level left; details: in vivo, 144 h
Rattus norvegicus [7] = experiment: Cardiotoxicity in left renal artery-ligated hypertensive rat model assessed as reduction of heart rate at 0.3 to 3 mg/kg, administered intra-arterially for 6 days; format: toxicity, organism-based; parameters: dose 0.3-3 mg/kg; scale not given: the % may be the effect or the level left; details: in vivo, other, 144 h
[8] = Binding affinity to angiotensin AT1 receptor in rat lung membranes; format: cell membranes, Membrane
Rattus norvegicus [9] = experiment: Antihypertensive activity in conscious normotensive rat at 0.1 mg/kg after 6 hrs; format: functional
Rattus norvegicus [10] = experiment: Inhibition of angiotensin 2-induced response in iv dosed conscious Sprague-Dawley rat; format: functional
[11] = Displacement of [125I]-Sar1Ile8-angiotensin 2 from angiotensin AT1 receptor in rat aortic smooth muscle cells
[12] = Displacement of [125I]-Sar1Ile8-angiotensin 2 from angiotensin AT1 receptor in rat adrenal cortical membranes; format: cell membranes, Membrane
Rattus norvegicus [13] = experiment: Antihypertensive activity in iv dosed salt depleted SHR rat model assessed as reduction of angiotensin 2-induced mean arterial pressure at […]; format: functional, Artery; parameters: scale not given: the % may be the effect or the level left
Rattus norvegicus [14] = experiment: Antihypertensive activity in iv dosed salt depleted SHR rat model assessed as reduction of angiotensin 2-induced response; format: functional
[15] = (§1) Displacement of radiolabeled angiotensin2 from angiotensin AT1 receptor in rat adrenal cortex membranes; format: cell membranes, Membrane
Rattus norvegicus [16] = experiment: Antihypertensive activity in iv dosed renal artery ligated rat model assessed as reduction of means arterial blood pressure by 30 mm Hg; format: functional
[17] = target: T1, Type-1 angiotensin II receptor; experiment: Antagonist activity at angiotensin AT1 receptor in rabbit aorta assessed as reduction of angiotensin 2-induced contractile response; format: functional, tissue-based; details: read-out: pA2 (converted)
[18] = Antagonist activity at angiotensin AT1 receptor in rat uterine membranes; format: functional, cell membranes
[19] = target: T2, Type-1 angiotensin II receptor; experiment: Displacement of [3H]-angiotensin 2 from angiotensin AT1 receptor in human PLC-PRF5 cells; format: cell-based
[20] = target: T2, Type-1 angiotensin II receptor; experiment: Antagonist activity at angiotensin AT1 receptor in human PLC-PRF5 cells; format: functional, cell-based
Rattus norvegicus [21] = experiment: Inhibition of angiotensin 2-induced response in intraduodenally dosed pithed normotensive rat; format: functional
[22] = target: T2, Type-1 angiotensin II receptor; experiment: Antagonist activity at angiotensin AT1 receptor; format: functional
Rattus norvegicus [23] = species on record: Rattus norvegicus; experiment: as §1; format: cell membranes; details: Membrane, concentration not given here
[24] = target: T3, Type-1 angiotensin II receptor (Cavia porcellus, UniProt Q9WV26); experiment: Binding affinity to angiotensin AT1 receptor in guinea pig adrenal cortex membranes; format: cell membranes, Membrane
T3 sequence (Q9WV26 whole entry): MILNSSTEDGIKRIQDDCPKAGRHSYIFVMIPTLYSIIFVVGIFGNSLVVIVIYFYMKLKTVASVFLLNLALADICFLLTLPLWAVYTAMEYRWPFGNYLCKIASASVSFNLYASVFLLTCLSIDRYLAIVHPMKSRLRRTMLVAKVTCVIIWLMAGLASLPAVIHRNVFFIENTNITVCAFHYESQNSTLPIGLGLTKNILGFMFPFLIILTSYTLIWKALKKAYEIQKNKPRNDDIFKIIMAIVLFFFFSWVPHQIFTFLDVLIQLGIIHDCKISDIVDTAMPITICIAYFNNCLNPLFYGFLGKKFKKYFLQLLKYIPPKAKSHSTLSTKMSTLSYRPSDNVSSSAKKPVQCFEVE

Rattus norvegicus [25] = experiment: Antihypertensive activity in iv dosed conscious rat; format: functional
[26] = target: T1, Type-1 angiotensin II receptor; experiment: Displacement of [125I]-Sar1Ile8-angiotensin 2 from angiotensin AT1 receptor in rabbit aortic membranes; format: cell membranes

Work on `CCOC(=O)/C=C1\N(Cc2ccc(-c3ccccc3-c3nn[nH]n3)cc2)C(=O)CC1(CC)CC` yielded an IC50 [1] of 100 nM and a Kb [2] of 12.6 nM.

`CCc1nc2c(C)cc(C)nn2c1Cc1ccc(-c2ccccc2-c2nn[nH]n2)cc1` showed an inhibition in vivo at 1 mg/kg (Rattus norvegicus [3]) of 90%.

With `CCCc1nn(Cc2ccccc2)c(C(=O)O)c1Cc1ccc(-c2ccccc2-c2nn[nH]n2)cc1` the Activity (Rattus norvegicus [4]) was 90%.

Work on `CCCCc1nc(Cl)c(C(=O)O)n1Cc1ccc2oc(-c3ccccc3-c3nn[nH]n3)c(Br)c2c1` [ZOLASARTAN] yielded a Ki [5] of 2 nM, an Activity (Rattus norvegicus [6]) of less than 15% and an Activity (Rattus norvegicus [7]) of less than 15%.

With `CCCc1nc2c(C)cc(-c3nc4ccccc4n3C)cc2n1Cc1ccc(-c2ccccc2C(=O)O)cc1` the Ki [8] was 3.7 nM.

In the case of `CCCCc1nc(-c2ccccc2Cl)c(C(=O)O)n1Cc1ccc(-c2ccccc2-c2nn[nH]n2)cc1`, the Activity (Rattus norvegicus [9]) is reported as 88%.

Compound `CCCCc1nc(Cl)c(C(=O)[O-])n1Cc1cccc2c1ccn2-c1ccccc1-c1nn[n-]n1.[Li+].[Li+]` has an ED50 (Rattus norvegicus [10]) of 0.22 µmol/kg, a Ki [11] of 7.6 nM and a Ki [12] of 18.4 nM. The Activity (Rattus norvegicus [13]) was 39% and the ED50 (Rattus norvegicus [14]) was 0.03 µmol/kg.

For `CCCCc1nc(Cl)c(C(=O)O)n1Cc1ccc(-c2ccccc2-c2nn[nH]n2)cc1` [CARBOXYLIC ACID METABOLITE], the IC50 [15] was 0.37 nM and the ED30 (Rattus norvegicus [16]) was 0.038 mg/kg.

Compound `CCCCc1nn(CCCC)c(=O)n1Cc1ccc(-c2ccccc2-c2nn[nH]n2)cc1` has a Kb [17] of 1.38 nM and an IC50 [18] of 5.1 nM.

`CCCCc1nn(-c2ccccc2C(F)(F)F)c(=O)n1Cc1ccc(-c2ccccc2-c2nn[nH]n2)cc1` showed an inhibition in vivo at 1 mg/kg (Rattus norvegicus [3]) of 70%.

For `CCCCN1CC2(CN1Cc1ccc(-c3ccccc3-c3nnn[nH]3)cc1)C(=O)CCC2=O`, the Ki [19] was 25 nM and the IC50 [20] was 22 nM.

In the case of `CC1CC(=O)NN=C1c1ccc2nc(C3CC3)n(Cc3ccc(-c4ccccc4-c4nn[nH]n4)cc3)c2c1` (configuration not stated), the “inhibition (INH)” value (Rattus norvegicus [21]) is reported as 80% and the IC50 [22] is reported as 1.8 nM.

For `CCCc1nc(C)n(CCO)c(=O)c1Cc1ccc(-c2ccccc2-c2nnn[nH]2)cc1`, the inhibition (Rattus norvegicus [23]) was 60%.

In the case of `CCc1cc(Oc2ccc(-c3ccccc3-c3nnn[nH]3)cc2)c2ncccc2n1`, the IC50 [24] is reported as 24 nM and the ED50 (Rattus norvegicus [25]) is reported as 0.86 mg/kg.

In the case of `CCCCc1nn(CC(C)(C)C)c(=O)n1Cc1ccc(-c2ccccc2-c2nnn[nH]2)cc1`, the IC50 [26] is reported as 1.2 nM.

Reference: ChEMBL document CHEMBL1667742, “Angiotensin II receptor type 1 (AT1) selective nonpeptidic antagonists--a perspective” (Bioorg Med Chem, 2010)
